From patent US10034462B2, “Animal model of nash-induced hepatocellular carcinoma and methods for developing specific therapeutics” (THE REGENTS OF THE UNIVERSITY OF CALIFORNIA, priority 2015, dated 2018)

Columns and labels:
[1] = tested on: primary hepatocytes from WT and MUP-uPA mice; assay: PA-induced lipotoxic cell death in primary hepatocytes (Cell Counting Kit-8 cell viability); format: cell-based; settings: for PA-induced cell death (cell viability): 300 μM PA for 24 hr with 500 μM TUDCA or 1 mM 4-PBA, WT and MUP-uPA hepatocytes
Procedure: (§1) Cell viability was assessed using Cell Counting Kit-8 assay. Data are means±S.D. of triplicate wells. *p<0.05. […] CHOP expression, SREBP1 maturation, and JNK phosphorylation were assessed by IB. FIGS. 4C-4D show the effect of GRP78 overexpression. MUP-uPA hepatocytes were infected with adenoviruses encoding LacZ or GRP78 and then incubated with PA. SREBP1 maturation (FIG. 4C) and cell viability (FIG. 4D) were assessed as above. […] Data are means±S.D. of triplicate wells. *p<0.05. FIGS. 4F-4I show the effect of TUDCA on NASH in HFD-fed MUP-uPA mice. 16 week old HFD-fed MUP-uPA mice were i.p. injected with TUDCA (250 mg/kg) or vehicle, and after 4 weeks of daily treatment, liver histology (scale bar=100 μm) (FIG. 4F), serum ALT (FIG. 4G), liver TG (FIG. 4H) and liver cholesterol (FIG. 4I) were evaluated. Bar graphs are means±S.D. (n=5 per group). *p<0.05. See also FIGS. 11A-11M.
To examine whether ER stress enhances lipotoxicity in MUP-uPA hepatocytes, we incubated WT and MUP-uPA hepatocytes with PA.

[2] = tested on: primary hepatocytes from WT and MUP-uPA mice; assay: Immunoblot of CHOP expression, SREBP1 maturation and JNK phosphorylation in PA-treated primary hepatocytes; format: cell-based, mouse
Procedure: as §1, with “FIGS. 4A-4I are pictorial and graphical diagrams showing that chemical chaperons attenuate lipotoxicity and liver damage in MUP-uPA mice. […] Cell viability” for “Cell viability”
Primary hepatocytes were isolated (He et al., 2013) and cultured in William's E medium with 10% FBS on collagen-coated plates. PA (Sigma) was dissolved in ethanol at 50° C. and then diluted in bovine serum albumin-containing RPMI-1640 medium that was applied to primary hepatocytes at a final concentration of 200 (to analyze signal transduction) or 300 (to analyze cell death) μM.
Immunoblotting and real-time Q-PCR were described (Maeda et al., 2005). Antibodies used were against: phospho-ERK, ERK1/2, phospho STAT3, STAT3, phospho-JNK, JNK1/2, phospho-S6, S6, p65, cyclinD1, YAP (all from Cell Signaling); K19, GRP78, SREBP1, CHOP, CCL7, TNFR1 (all from Santa Cruz Biotechnology); phospho-eIF2α (Upstate); tubulin (Sigma); F4/80 (Molecular Probes); Ki67 (Gene Tex); AFP (Biocare Medical); TNF (R&D Systems); B220 (BD Pharmingen). TUDCA and 4-PBA were from Calbiochem and Sigma, respectively. GSH:GSSG ratio was analyzed using GSSG/GSH Quantification Kit (Dojindo).
To examine whether ER stress enhances lipotoxicity in MUP-uPA hepatocytes, we incubated WT and MUP-uPA hepatocytes with PA. […] PA increased CHOP expression and SREBP1 maturation in WT hepatocytes, but these effects were more pronounced in MUP-uPA hepatocytes, which expressed both proteins prior to PA addition (FIG. 4B). To examine the contribution of ER stress to these phenomena, we treated hepatocytes with the chemical chaperons 4-phenylbutyrate (4-PBA) and tauro-ursodeoxycholic acid (TUDCA), which reduce ER stress (Ozcan et al., 2006).

HFD-fed MUP-uPA mice = assay: Effect of TUDCA on NASH in HFD-fed MUP-uPA mice; format: in vivo, mouse
Procedure: as §1, with “FIGS. 4A-4I are pictorial and graphical diagrams showing that chemical chaperons attenuate lipotoxicity and liver damage in MUP-uPA mice. […] Cell viability” for “Cell viability”
FIGS. 11A-11M are pictorial and graphical diagrams showing the effects of TUDCA and GRP78 overexpression and CHOP ablation on NASH and HCC development. FIGS. 11A and 11B show cell death and ROS accumulation in livers of TUDCA- or vehicle-treated HFD-fed MUP-uPA mice were examined by TUNEL (FIG. 11A) and DHE staining (FIG. 11B), respectively (scale bar=100 μm). […] CHOP protein expression in whole liver and mature SREBP1 in the nuclear fraction were examined by IB analysis. Shown are three individual livers per condition. FIGS. 11D and 11E show the effects of GRP78 overexpression. HFD-fed MUP-uPA mice were intravenously injected with 1×10^9 pfu of Ad-LacZ or Ad-GRP78. After 6 days the mice (n=6 per group) were sacrificed and hepatic steatosis was analyzed by H&E staining (scale bar=100 μm) (FIG. 11D) and GRP78 expression was determined by IB analysis (FIG. 11E). […] Data are means±S.D. (n=3 per group). […] FIGS. 11H-11K show the effect of hepatocyte CHOP ablation on tumor development and severity of NASH in HFD-fed MUP-uPA mice at 40 weeks of age. […] Results are means±S.E.M. (Chop^F/F/MUP-uPA, n=17; Chop^Δhep/MUP-uPA, n=11). *p<0.05. […] Data are means±S.D. (n=5-6 per group).
FIGS. 12A-12F are pictorial and graphical diagrams showing characteristics of Tnfr1^−/−/MUP-uPA mice. FIGS. 12A and 12B show the effect of 4 weeks TUDCA treatment on HFD-fed MUP-uPA mouse liver. IHC of F4/80 (scale bar=100 μm) (FIG. 12A) and TNF mRNA expression (FIG. 12B). Data are means±S.D. (n=5 per group). *p<0.05. […] Data are presented as means±S.D. (n=3 per group). […] Data are presented as means±S.D. (n=5 per group). […] Results are shown as means±S.D.
Hepatic lipids were extracted with chloroform/methanol (2:1 v/v), and TG and total cholesterol contents were measured with Triglyceride Reagent Set (Pointe Scientific) and Cholesterol E (Wako), respectively. FA composition was analyzed by gas-chromatography at SRL Inc., Tokyo, Japan.
Livers were fixed in 10% neutral-buffered formalin or 4% paraformaldehyde, embedded in paraffin, sectioned, and stained with hematoxylin and eosin (H&E), Sirius Red, and processed for IHC. For frozen block preparation, tissue was embedded in Tissue-Tek OCT compound (Sakura Finetek). IHC and IF analyses were described (He et al., 2013). Stained areas were quantitated with Image J software. Slides were incubated with primary antibodies, followed by secondary antibodies labeled with Alexa488 or Alexa594 (Molecular Probes). TUNEL staining was performed using an Apoalert DNA Fragmentation Assay kit (Clontech). Accumulation of superoxide anions was examined by DHE staining (Sakurai et al., 2008). Tissue sample preparation and EM analysis were described (Lee et al., 2012).
We examined the effect of TUDCA on NASH development. We initiated daily i.p. injections of TUDCA (250 mg/kg) or phosphate-buffered saline (PBS; vehicle control) to HFD-fed MUP-uPA mice at 16 weeks of age. […]

LFD or HFD-fed WT mice = assay: Tunicamycin-induced ER stress and liver damage in LFD- or HFD-fed WT mice; format: in vivo, mouse
Source text: FIGS. 10A-10J are pictorial and graphical diagrams showing that ER stress is sustained by HFD in MUP-uPA mice. […] Arrows indicate dilated ER (scale bar=1 μm). […] Representative images of livers and H&E (FIG. 10D) and TUNEL (FIG. 10E) staining of liver sections prepared 36 hrs later (scale bar=100 μm). […] Data are means±S.D. (n=3-4 per group). […] All bar graphs represent means±S.D. n=3 per group). *p<0.05.
Although the mechanism responsible for hepatocyte death in young MUP-uPA mice is not entirely clear, their hepatocytes are ER stressed (Sandgren et al., 1991). Indeed, several ER stress markers, including CHOP, GRP78, spliced XBP1 (sXBP1), phosphorylated (p) eIF2α, p-IRE1α and p-JNK, were elevated in 5 weeks old MUP-uPA mice compared with WT (FIGS. 3A and 10A). While most markers declined in 16 week old MUP-uPA mice, paralleling the decline in uPA expression, HFD-fed MUP-uPA mice maintained strong eIF2α and JNK phosphorylation and CHOP expression, (FIGS. 3B and 10A). In WT mice, HFD feeding induced only a slight elevation in p-eIF2α and CHOP mRNA with no effect on CHOP protein (FIG. 3B). Immunohistochemistry (IHC) confirmed nuclear CHOP in hepatocytes of 5 weeks old MUP-uPA mice, which was sustained at 16 weeks of age only in HFD-fed MUP-uPA mice (FIG. 3C). […] After 24 weeks of HFD, expression of the […] ligand TRAIL was also elevated in the MUP-uPA liver. […] Thus, whereas ER stress appears to be induced by uPA expression in 5 weeks old MUP-uPA mice, it declines due to transgene extinction. However, feeding these mice with HFD re-kindles the stress response and induces several cell death mediators that are not expressed in HFD-fed WT mice. To determine whether ER stress can cause ballooning degeneration and hepatocyte death, we injected HFD-fed WT mice with the protein glycosylation inhibitor and ER stress elicitor tunicamycin. This treatment led to rapid (36 hrs) induction of ballooning degeneration, hepatocyte apoptosis and ALT release only in HFD-fed mice (FIGS. 10D-10F).

[3] = 200 μM PA, WT hepatocytes, more pronounced in MUP-uPA hepatocytes
[4] = 250 mg/kg i.p. daily for 4 weeks from 16 weeks of age, vs PBS vehicle
[5] = 250 mg/kg i.p. daily for 4 weeks, vs vehicle
[6] = HFD-fed WT mice, 1.25 mg/kg i.p., 36 hrs, only in HFD-fed mice

## CCCCCCCCCCCCCCCC(=O)O [PA, palmitic acid]
[1]; 300 μM PA, after 24 hrs, more extensive in MUP-uPA hepatocytes
  lipotoxic cell death caused by PA: lipotoxic cell death was seen in both WT and MUP-uPA hepatocytes
[2]; [3]
  CHOP expression caused by PA: increased
  SREBP1 maturation caused by PA: increased
[2]; 200 μM PA, effect restricted to WT hepatocytes
  JNK activation by PA: activated

## O=C(O)CCCc1ccccc1 [4-PBA, 4-phenylbutyric acid]
[1]
  PA-induced cell death (cell viability): attenuated PA-induced cell death
[2]; 200 μM PA with 1 mM 4-PBA, IB
  CHOP induction upon PA treatment: reduced
  JNK phosphorylation upon PA treatment: only partially reduced
  SREBP1 maturation upon PA treatment: reduced

## C[C@H](CCC(=O)NCCS(=O)(=O)O)[C@H]1CC[C@H]2[C@@H]3[C@@H](O)C[C@@H]4C[C@H](O)CC[C@]4(C)[C@H]3CC[C@]12C [TUDCA, tauroursodeoxycholic acid]
HFD-fed MUP-uPA mice; [4]
  hepatic TG: significantly reduced
  hepatic cholesterol: significantly reduced
  hepatocyte ballooning (liver histology): attenuated
  hepatosteatosis (liver histology): attenuated
  serum ALT: significantly reduced
HFD-fed MUP-uPA mice; 250 mg/kg i.p. daily for 4 weeks, nuclear fraction
  SREBP1 maturation in liver (IB): inhibited
HFD-fed MUP-uPA mice; [5]
  ROS accumulation (DHE staining): suppressed
  hepatocyte death (TUNEL): suppressed
HFD-fed MUP-uPA mice; 250 mg/kg i.p. daily for 4 weeks, whole liver
  CHOP expression in liver (IB): inhibited
HFD-fed MUP-uPA mice; 4 weeks TUDCA treatment
  TNF expression in liver (mRNA): inhibited
  macrophage infiltration in liver (F4/80 IHC): inhibited
[1]
  PA-induced cell death (cell viability): attenuated PA-induced cell death

## tunicamycin
LFD or HFD-fed WT mice; HFD-fed WT mice, 1.25 mg/kg i.p., 36 hrs
  liver steatosis (gross appearance of liver): more steatotic
LFD or HFD-fed WT mice; [6]
  ALT release (serum ALT): induction
  ballooning degeneration: induction
  hepatocyte apoptosis (TUNEL): induction
LFD or HFD-fed WT mice; short term, by itself (without HFD)
  liver damage by tunicamycin alone: did not damage the liver
